Test results taken from ChEMBL document CHEMBL1133280, “Discovery and synthesis of a potent sulfonamide ET(B) selective antagonist” (Bioorg Med Chem Lett, 2000).

Legend:
Endothelin-1 receptor = target: T1, Endothelin-1 receptor (Rattus norvegicus, UniProt P26684); assay: Displacement of [125 I] ET-1 from rat aortic smooth muscle A7r5 cells transfected with Endothelin A receptor; assay type: cell-based
T1 sequence (P26684 whole entry): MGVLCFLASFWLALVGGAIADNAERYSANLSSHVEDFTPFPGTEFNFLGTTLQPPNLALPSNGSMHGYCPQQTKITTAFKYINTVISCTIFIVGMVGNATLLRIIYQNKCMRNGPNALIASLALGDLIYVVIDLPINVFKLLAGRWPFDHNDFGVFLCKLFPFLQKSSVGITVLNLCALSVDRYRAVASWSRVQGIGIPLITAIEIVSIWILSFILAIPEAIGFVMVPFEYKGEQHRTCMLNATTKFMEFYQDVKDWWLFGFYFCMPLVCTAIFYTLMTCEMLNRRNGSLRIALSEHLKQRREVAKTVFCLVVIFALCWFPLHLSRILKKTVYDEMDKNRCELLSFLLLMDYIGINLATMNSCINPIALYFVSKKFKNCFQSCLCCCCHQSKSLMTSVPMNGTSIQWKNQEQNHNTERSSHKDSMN

[1] = Ratio of IC50 of rat ETA receptor to that of porcine ETB receptor
[2] = target: T2, Endothelin receptor type B (Sus scrofa, UniProt P35463); assay: Binding affinity towards displacement of [125 I] ET-3 from COS-7 cells transfected with porcine Endothelin B receptor; assay type: cell-based
T2 sequence (P35463 whole entry): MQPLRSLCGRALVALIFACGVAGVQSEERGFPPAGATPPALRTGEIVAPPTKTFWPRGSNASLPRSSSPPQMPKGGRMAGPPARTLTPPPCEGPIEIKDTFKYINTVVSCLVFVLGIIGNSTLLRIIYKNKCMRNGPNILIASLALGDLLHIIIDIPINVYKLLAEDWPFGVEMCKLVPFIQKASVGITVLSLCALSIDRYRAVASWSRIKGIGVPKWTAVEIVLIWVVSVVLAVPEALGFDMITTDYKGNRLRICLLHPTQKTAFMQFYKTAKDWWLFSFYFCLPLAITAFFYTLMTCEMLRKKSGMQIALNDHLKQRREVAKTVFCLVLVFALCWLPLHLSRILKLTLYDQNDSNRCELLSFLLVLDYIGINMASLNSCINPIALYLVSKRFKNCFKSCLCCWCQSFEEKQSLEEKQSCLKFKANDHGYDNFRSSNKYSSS

Compound | IC50 (Endothelin-1 receptor) [µM] | Ratio [1] | IC50 [2] [µM]
COc1cccc(Sc2c(NS(=O)(=O)c3ccc(C(C)(C)C)cc3)noc2CCCCO)c1 | 0.63 | 2.6 | 0.24
COc1cccc(Sc2c(NS(=O)(=O)c3ccc(C(C)(C)C)cc3)noc2CCC=O)c1 | 0.38 | 0.8 | 0.5
COc1cccc(Sc2c(NS(=O)(=O)c3ccc(C(C)(C)C)cc3)noc2CCO)c1 | 0.77 | 1.8 | 0.43
COc1cccc(Sc2c(NS(=O)(=O)c3ccc(C(C)(C)C)cc3)noc2CCCC(=O)O)c1 |  | 8.6 | 0.5
Cc1onc(NS(=O)(=O)c2ccc(N)cc2)c1I | 11 |  | > 1000
CSc1c(NS(=O)(=O)c2ccc(C(C)(C)C)cc2)noc1C | > 100 |  | 35
Cc1nsc(NS(=O)(=O)c2ccc(C(C)(C)C)cc2)c1C | > 500 |  | 
Cc1onc(NS(=O)(=O)c2ccc(C(C)(C)C)cc2)c1C | 28 |  | 
COc1cccc(Sc2c(NS(=O)(=O)c3ccc(C(C)(C)C)cc3)noc2CCCC=O)c1 | 1.7 | 850 | 0.002
Cc1onc(NS(=O)(=O)c2ccc(C(C)(C)C)cc2)c1I | > 100 |  | 30
COc1cccc(Sc2c(NS(=O)(=O)c3ccc(C(C)(C)C)cc3)noc2CO)c1 | 6.2 | 11 | 0.56
COc1cccc(Sc2c(NS(=O)(=O)c3ccc(C(C)(C)C)cc3)noc2C)c1 | 0.53 | 1.8 | 0.3
Cc1onc(NS(=O)(=O)c2ccc(N)cc2)c1Cc1ccccc1 | 71 |  | 

The remaining compounds from weak to strong by IC50 (Endothelin-1 receptor), led by results:

IC50 (Endothelin-1 receptor) [µM] | Ratio [1] | IC50 [2] [µM] | Compound
28 |  |  | Cc1snc(NS(=O)(=O)c2ccc(N)cc2)c1C
6.3 | 26 | 0.24 | COc1cccc(Sc2c(NS(=O)(=O)c3ccc(C(C)(C)C)cc3)noc2CCCC(N)=O)c1
3.5 |  |  | Cc1onc(NS(=O)(=O)c2ccc(N)cc2)c1Cl
3.4 |  |  | CCc1c(NS(=O)(=O)c2ccc(N)cc2)noc1C
1.5 | 18 | 0.085 | COc1cccc(Sc2c(NS(=O)(=O)c3ccc(C(C)(C)C)cc3)noc2CCC/C=N/O)c1
1.4 | 70 | 0.02 | COc1cccc(Sc2c(NS(=O)(=O)c3ccc(C(C)(C)C)cc3)noc2CCCCC=O)c1
1.3 | 3.3 | 0.4 | COc1cccc(Sc2c(NS(=O)(=O)c3ccc(C(C)(C)C)cc3)noc2CCCC(C)=O)c1
1.3 | 2.5 | 0.52 | COc1cccc(Sc2c(NS(=O)(=O)c3ccc(C(C)(C)C)cc3)noc2CCCC#N)c1
0.8 | 0.3 | 2.8 | CCc1onc(NS(=O)(=O)c2ccc(C(C)(C)C)cc2)c1Sc1cccc(OC)c1
0.4 | 1.3 | 0.31 | COC(=O)CCCc1onc(NS(=O)(=O)c2ccc(C(C)(C)C)cc2)c1Sc1cccc(OC)c1
0.32 | 2.3 | 0.14 | COc1cccc(Sc2c(NS(=O)(=O)c3ccc(C(C)(C)C)cc3)noc2CCCO)c1
